Experimental data reported in US11970474B2, “Substituted benzodiazoles and use thereof in therapy” (THOMAS HELLEDAYS STIFTELSE FÖR MEDICINSK FORSKNING, priority 2018, dated 2024).

Assays:
MLE12 cells = test: Cell viability assay in MLE12 cells (resazurin); assay type: cell-based, mouse; conditions: Mus musculus, MLE12, 24 h, TNF-α 20 ng/ml, resazurin added after 24 hours culture
In short: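 MLE12 cells (7500 cells/well) were seeded onto 11-point duplicate compound dose-responses, with TNF-α (final 20 ng/ml) added after 1 hour at 37° C. After 24 hours, resazurin was added for 6 hours and resorufin fluorescence read (ex544 nm/em595 nm). EC50 values were calculated by curve fitting.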

CCL2 = test: Mouse CCL2 assay in MLE12 cells; assay type: cell-based; conditions: Mus musculus, MLE12, 30 h, MLE12 cells; TNF-α 20 ng/ml; supernatant after 30 hours; HTRF; read-out: CCL2 (EC50)
In short: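 CCL2 in supernatants was quantified by two-antibody HTRF FRET, read at 620 and 665 nm after overnight RT incubation, with IC50 derived from delta ratios. Cells were SV40-transformed mouse MLE12, treated with duplicate 6-point compound series for 1 h before 30 h TNF-α (20 ng/ml final) stimulation.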

OGG1 = OGG1 (Homo sapiens (Human), UniProt O15527); test: In vitro OGG1 activity assay; assay type: biochemical; conditions: 800 pM OGG1 enzyme, 2 nM human APEX1, 10 nM 8-oxoA:C substrate
OGG1, sequence (O15527 whole entry): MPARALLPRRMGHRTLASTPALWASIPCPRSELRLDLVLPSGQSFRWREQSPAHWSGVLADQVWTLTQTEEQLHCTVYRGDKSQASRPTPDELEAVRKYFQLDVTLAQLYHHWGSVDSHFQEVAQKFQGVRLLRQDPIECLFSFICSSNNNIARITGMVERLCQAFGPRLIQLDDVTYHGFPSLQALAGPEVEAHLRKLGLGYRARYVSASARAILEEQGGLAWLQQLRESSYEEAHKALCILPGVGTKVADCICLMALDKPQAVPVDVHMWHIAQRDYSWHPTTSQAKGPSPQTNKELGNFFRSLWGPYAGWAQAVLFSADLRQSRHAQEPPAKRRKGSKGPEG
In short: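 Read-out is fluorescein fluorescence, with compounds in DMSO added first, then enzyme and substrate. OGG1 excises its substrate base from a quenched fluorophore-labelled duplex, and surplus APEX1 cuts the resulting apurinic site. The duplex then melts and fluorescence rises in proportion to glycosylase activity.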

EC50 (CCL2)	IC50 (OGG1)	Compound	IC50 (MLE12 cells)
13.6 µM	0.0516 µM	COc1cc(NC(=O)[C@H]2CC[C@@H](n3c(=O)[nH]c4c(N5CCCC5)cccc43)CC2)ccc1C [Example 310, Cis-N-(3-methoxy-4-methylphenyl)-4-[2-oxo-4-(pyrrolidin-1-yl)-2,3-dihydro-1H-1,3-benzodiazol-1-yl]cyclohexane-1-carboxamide]	6.13 µM
28.5 µM	0.00294 µM	COc1cc(NC(=O)[C@H]2CC[C@@H](n3c(=O)[nH]c4c(C5=CCN(C)CC5)cccc43)CC2)ccc1C [Example 312, Cis-N-(3-methoxy-4-methylphenyl)-4-[4-(1-methyl-1,2,3,6-tetrahydropyridin-4-yl)-2-oxo-2,3-dihydro-1H-1,3-benzodiazol-1-yl]cyclohexane-1-carboxamide]	11 µM
35.1 µM	0.0213 µM	COc1cc(NC(=O)[C@H]2CC[C@@H](n3c(=O)[nH]c4c(N5CCC(NC(C)=O)C5)cccc43)CC2)ccc1C (stereo partly drawn) [Example 313, Cis-4-[4-(3-acetamidopyrrolidin-1-yl)-2-oxo-2,3-dihydro-1H-1,3-benzodiazol-1-yl]-N-(3-methoxy-4-methylphenyl)cyclohexane-1-carboxamide]	19.5 µM

Compound	EC50 (CCL2)	IC50 (OGG1)	IC50 (MLE12 cells)
COc1cc(NC(=O)[C@H]2CC[C@@H](n3c(=O)[nH]c4c(C5=CCNCC5)cccc43)CC2)ccc1C [Example 311, Cis-N-(3-methoxy-4-methylphenyl)-4-[2-oxo-4-(1,2,3,6-tetrahydropyridin-4-yl)-2,3-dihydro-1H-1,3-benzodiazol-1-yl]cyclohexane-1-carboxamide]	14.5 µM	0.00449 µM	13.8 µM
